Data on one molecule can be found in patent publication US7141546B1, “CRFR2 selective ligands” (priority 2001, dated 2006).

One assay concerns CRF receptors. In words: Intrinsic CRF activity of the antagonist. The conditions noted are these: when administered at the highest dosage.
The target of assay [1] is T1, CRFR1 (Homo sapiens, UniProt P34998).
T1 construct: expressed in transfected cells
T1 sequence (P34998 24-415): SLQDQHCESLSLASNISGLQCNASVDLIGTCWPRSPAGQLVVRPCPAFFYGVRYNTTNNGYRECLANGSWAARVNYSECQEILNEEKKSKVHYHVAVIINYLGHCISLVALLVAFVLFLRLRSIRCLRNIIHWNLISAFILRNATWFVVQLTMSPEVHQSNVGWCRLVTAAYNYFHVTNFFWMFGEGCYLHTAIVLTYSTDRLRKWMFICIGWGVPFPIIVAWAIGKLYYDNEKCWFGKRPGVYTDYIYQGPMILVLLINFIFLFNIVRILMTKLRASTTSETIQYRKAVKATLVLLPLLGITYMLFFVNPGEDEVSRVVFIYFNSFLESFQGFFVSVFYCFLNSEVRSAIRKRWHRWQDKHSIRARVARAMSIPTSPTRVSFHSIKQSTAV
The assay is described as follows: Competitive displacement binding assay, cloned hCRFR1 expressed in CHO cells. The text has this: A candidate CRFR2 ligand is also easily evaluated in a binding assay using known CRF receptors, such as that described in Perrin, M., et al., Endocrinology, 118, 1171–1179 (1986). CRF receptors and the details of binding assays are discussed later in this specification. […] One such representative binding assay utilizing CRF-R1 receptor is described in Chen, et al., P.N.A.S., 90, 8967–8971 (October 1993).
(§1) CRF receptors have now been cloned and are disclosed in the aforementioned Chen et al. article, in Perrin, M., et al., P.N.A.S, 92, 2969–2973 (March 1995), and in Lovenberg, T., et al., P.N.A.S., 92, 836–840 (January 1995). Binding affinity is a term used to refer to the strength of interaction between ligand and receptor. […] Ki (inhibitory binding affinity constant) is determined using a “standard” or “tracer” radioactive ligand and thus measures the displacement of the tracer from the receptor or binding protein; it is most properly expressed with reference to such tracer. However, so long as these assays are carefully performed under specific conditions with relatively low concentrations of receptor or the like, the calculated Ki will be substantially the same as its dissociation constant KD. […] It is particularly efficient to test for Ki because only a single tracer need be labelled, e.g. radioiodinated. […] Those reported hereinafter are derived using radioactively labeled [Tyr Glu^1, Nle^17]-Svg as a radioligand.
(§2) Binding assays with cells expressing human CRFR1 are carried out as described in the Chen et al. P.N.A.S., supra. The affinities of test peptides for CRFR1 and CRFR2b stably expressed in CHO cells were determined by competitive displacement of ^125I-(Nle^21, Tyr^32) ovine CRF (for CRFR1) or of [^125I-Tyr^o-]Ucn (for CRFR2b) as described.

The target of assay [2] is T1, CRFR1. In words: cAMP accumulation in CHO cells stably transfected with CRFR1 and treated with CRF. It counts as cell-based.
Text: (§3) In addition to inhibiting CRF receptor binding, a candidate's CRF receptor antagonist activity may be established by the ability of the compound to antagonize an activity associated with CRF. For example, CRF is known to stimulate various biochemical processes, including adenylate cyclase activity. Therefore, compounds may be evaluated as CRF antagonists by their ability to antagonize CRF-stimulated adenylate cyclase activity by, for example, measuring cAMP levels. The inhibition of CRF-stimulated adenylate cyclase activity, determined by the assay described by G. Battaglia et al., Synapse 1:572 (1987), provides an assay for determining a compound's ability to antagonize CRF activity. Accordingly, CRF receptor antagonist activity may be determined by assay techniques which generally include an initial binding assay followed by such a cAMP screening protocol.
as §2
In general terms: cAMP levels reflect the balance of adenylyl cyclase and phosphodiesterase activity.

In a further assay the target is T2, CRFR2 (Homo sapiens, UniProt Q13324).
T2 construct: expressed in transfected cells
T2 sequence (Q13324 1-438 isoform Q13324-2): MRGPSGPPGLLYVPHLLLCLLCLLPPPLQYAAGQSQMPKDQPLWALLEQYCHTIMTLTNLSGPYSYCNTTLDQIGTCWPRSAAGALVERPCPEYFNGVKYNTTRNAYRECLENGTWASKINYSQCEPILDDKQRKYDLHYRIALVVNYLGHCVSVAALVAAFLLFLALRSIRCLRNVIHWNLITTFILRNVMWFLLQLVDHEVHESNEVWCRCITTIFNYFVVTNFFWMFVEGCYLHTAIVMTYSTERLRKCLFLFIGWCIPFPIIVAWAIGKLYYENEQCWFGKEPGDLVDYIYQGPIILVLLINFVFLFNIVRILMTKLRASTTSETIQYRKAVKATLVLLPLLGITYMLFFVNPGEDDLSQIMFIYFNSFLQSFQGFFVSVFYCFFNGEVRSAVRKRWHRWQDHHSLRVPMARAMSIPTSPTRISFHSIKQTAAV
In words: cAMP accumulation in CHO cells stably transfected with CRFR2 and treated with CRF. The assay is classed as cell-based. The conditions noted are these: CHO cells stably transfected with CRFR2, treated with CRF.
Text: as §3, with “protocol. […]” for “protocol.”

Another assay addresses T3, human CRFR2b (Homo sapiens, UniProt Q13324).
T3 construct: expressed in transfected cells
T3 sequence (Q13324 1-438 isoform Q13324-2): T2 sequence (Q13324 1-438 isoform Q13324-2)
The assay is described as follows: Competitive displacement binding assay, stably transfected CHO cells expressing human CRFR2b. The procedure: as §1, §2

Broadly, the IC50 is the point on the concentration scale where inhibition reaches its midpoint. One may read the Ki as a measure of affinity in units of concentration, obtained from inhibition or displacement. A higher Ki goes with weaker binding.

As to `CCCC[C@H](NC(=O)[C@H](CCCCN)NC(=O)[C@H](CCCNC(=N)N)NC(=O)[C@H](CC(C)C)NC(=O)[C@](C)(CC(C)C)NC(=O)[C@H](Cc1c[nH]cn1)NC(=O)[C@@H](Cc1ccccc1)NC(C)=O)C(=O)N[C@H](C(=O)N[C@@H](CCC(=O)O)C(=O)N[C@H](C(=O)N[C@@H](CCC(=O)O)C(=O)N[C@@H](CCCCN)C(=O)N[C@@H](CCC(N)=O)C(=O)N[C@@H](CCC(=O)O)C(=O)N[C@@H](CCCCN)C(=O)N[C@@H](CCC(=O)O)C(=O)N[C@@H](CCCCN)C(=O)N[C@@H](CCC(N)=O)C(=O)N[C@@H](CCC(N)=O)C(=O)N[C@@H](C)C(=O)N[C@H]1CCC(=O)NCCCC[C@@H](C(=O)N[C@@H](CC(C)C)C(=O)N[C@@H](CC(C)C)C(=O)N[C@@H](CC(C)C)C(=O)N[C@@H](CC(=O)O)C(=O)N[C@@](C)(CC(C)C)C(=O)N[C@H](C(N)=O)[C@@H](C)CC)NC(=O)[C@H](CC(N)=O)NC(=O)[C@H](CC(N)=O)NC1=O)[C@@H](C)CC)[C@@H](C)CC` [Example 1 cyclic peptide, (cyclo 31–34)[Ac-D-Phe^11, His^12, CML ^13,39, Nle^17, Glu^31, Lys^34]-sauvagine(11–40)], the “intrinsic CRF activity” value in the assay with CRF receptors is reported as “only minor intrinsic CRF activity”. Moreover, at CRFR1 [1], the IC50 is > 500 nM and the inhibition constant Ki is ~1000 nM. Also, on CRFR1 [2], the “antagonism of CRF activity with respect to CRFR1 (cAMP accumulation)” value is on record as “little or no effect”. In addition, the “antagonism of CRF activity with respect to CRFR2 (cAMP accumulation)” value at CRFR2 was “effectively antagonize CRF activity”. Further, the Ki at human CRFR2b was 1.1 nM.
